Measurements reported in ChEMBL document CHEMBL3414475, “Design, synthesis, and structure-activity relationship of novel LSD1 inhibitors based on pyrimidine-thiourea hybrids as potent, orally active antitumor agents” (J Med Chem, 2015).
Active and inactive are the calls of the source. No cut-off for these calls is given here.

What was measured:
[1] = biological target: Lysine-specific histone demethylase 1A (Homo sapiens, UniProt O60341)
Description: Inhibition of recombinant LSD1 (157 to 852) (unknown origin) transfected in Escherichia coli BL21(DE) by fluorescence assay

[2] = tested on: MGC-803; assay: Induction of apoptosis in human MGC803 cells assessed as down regulation of Bcl2 expression after 48 hrs by Western blotting analysis; format: functional, cell-based
[3] = cells; conditions: Homo sapiens, SGC-7901, 72 h
Description: Cytotoxicity against human SGC7901 cells after 72 hrs by MTT assay

[4] = tested on: MGC-803; assay: animal or person; conditions: Mus musculus, MGC-803, po, 504 h, read-out: TGI
Description: Antitumor activity against human MGC803 cells xenografted in nude BALB/C mouse assessed as reduction of tumor weight at 50 mg/kg, po administered for 21 days relative to vehicle-treated control

[5] = tested on: Mus musculus; assay: Toxicity in nude BALB/C mouse xenografted with human MGC803 cells assessed as weight loss at 50 to 100 mg/kg, po; format: organism-based, MGC-803; design: dose 50-100 mg/kg, route oral; conditions: in vivo
[6] = tested on: MGC-803; assay: Induction of apoptosis in human MGC803 cells assessed as formation of apoptotic bodies after 48 hrs by annexinV-FITC/propidium iodide staining-based flow cytometry; format: functional, cell-based
[7] = tested on: MGC-803; assay: cells; conditions: Homo sapiens, MGC-803, 72 h
Description: Cytotoxicity against human MGC803 cells after 72 hrs by MTT assay

[8] = biological target: T1, Amine oxidase [flavin-containing] A (Homo sapiens, UniProt P21397)
T1 sequence (P21397 whole entry): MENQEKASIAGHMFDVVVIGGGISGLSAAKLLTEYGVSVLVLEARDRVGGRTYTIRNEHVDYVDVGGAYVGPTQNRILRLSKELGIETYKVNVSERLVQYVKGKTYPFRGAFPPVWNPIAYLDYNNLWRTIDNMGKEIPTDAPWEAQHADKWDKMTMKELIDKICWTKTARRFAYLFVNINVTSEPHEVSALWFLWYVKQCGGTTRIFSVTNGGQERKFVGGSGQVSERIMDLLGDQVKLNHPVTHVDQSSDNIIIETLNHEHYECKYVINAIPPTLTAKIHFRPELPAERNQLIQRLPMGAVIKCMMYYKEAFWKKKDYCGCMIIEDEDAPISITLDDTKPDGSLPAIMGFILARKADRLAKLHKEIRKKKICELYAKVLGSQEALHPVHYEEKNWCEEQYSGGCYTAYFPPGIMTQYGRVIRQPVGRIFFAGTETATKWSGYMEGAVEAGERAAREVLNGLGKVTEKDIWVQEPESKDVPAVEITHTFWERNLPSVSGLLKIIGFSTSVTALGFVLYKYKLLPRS
Description: Inhibition of MAOA (unknown origin)

[9] = tested on: MGC-803; assay: Induction of apoptosis in human MGC803 cells assessed as formation of apoptotic bodies at 2 to 8 uM after 24 hrs by Hoechst 33258 staining-based fluorescence microscopy; format: functional, cell-based
[10] = Antimetastatic activity in mouse B16F10 cells […] in C57BL/6 mouse assessed as lung metastatic nodule at 100 mg/kg, po administered for 14 days (reference value: 26.6 +/- 8.7); format: functional, B16-F10
[11] = Antimetastatic activity in mouse B16F10 cells […] in C57BL/6 mouse assessed as lung metastatic nodule at 50 mg/kg, po administered for 14 days (reference value: 26.6 +/- 8.7); format: functional, B16-F10
[12] = tested on: MGC-803; assay: Induction of apoptosis in human MGC803 cells assessed as chromatin shrinkage at 2 to 8 uM after 24 hrs by Hoechst 33258 staining-based fluorescence microscopy; format: functional, cell-based
[13] = cells; conditions: Homo sapiens, HGC-27, 72 h
Description: Cytotoxicity against human HGC27 cells after 72 hrs by MTT assay

[14] = tested on: MGC-803; assay: animal or person; conditions: Mus musculus, MGC-803, po, 504 h, read-out: TGI; remark: listed apart in the source
Description: Antitumor activity against human MGC803 cells xenografted in nude BALB/C mouse assessed as reduction of tumor weight at 100 mg/kg, po administered for 21 days relative to vehicle-treated control

[15] = tested on: Mus musculus; assay: Upregulation of Bax expression in nude BALB/C mouse xenografted with human MGC803 cells at 50 to 100 mg/kg, po administered for 21 days; format: functional, organism-based; conditions: MGC-803
[16] = Induction of apoptosis in human MGC803 cells assessed as upregulation of Bax expression after 48 hrs by Western blotting analysis; format: functional, cell-based; conditions: MGC-803
[17] = cells; conditions: Homo sapiens, GES1, 72 h
Description: Cytotoxicity against human GES-1 cells after 72 hrs by MTT assay

[18] = biological target: T2, Amine oxidase [flavin-containing] B (Homo sapiens, UniProt P27338)
T2 sequence (P27338 whole entry): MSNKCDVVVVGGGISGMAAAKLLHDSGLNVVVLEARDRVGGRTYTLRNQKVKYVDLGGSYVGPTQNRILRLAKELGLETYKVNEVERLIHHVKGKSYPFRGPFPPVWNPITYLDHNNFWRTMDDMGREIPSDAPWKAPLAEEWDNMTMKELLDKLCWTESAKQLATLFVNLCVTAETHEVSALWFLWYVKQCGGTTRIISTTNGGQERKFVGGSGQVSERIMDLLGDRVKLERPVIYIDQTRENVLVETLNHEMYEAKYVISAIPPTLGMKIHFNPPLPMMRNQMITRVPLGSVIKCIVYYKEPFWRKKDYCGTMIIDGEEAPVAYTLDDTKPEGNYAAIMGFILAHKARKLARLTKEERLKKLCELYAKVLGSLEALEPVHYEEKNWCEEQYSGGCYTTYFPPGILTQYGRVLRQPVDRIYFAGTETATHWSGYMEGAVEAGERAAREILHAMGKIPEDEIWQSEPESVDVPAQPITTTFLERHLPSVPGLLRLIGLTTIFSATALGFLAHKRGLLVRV
Description: Inhibition of MAOB (unknown origin)

[19] = tested on: MGC-803; assay: Antiinvasive activity against human MGC803 cells at 1.25 to 5 uM after 48 hrs by wound healing assay; format: functional, cell-based
[20] = tested on: MGC-803; assay: Induction of apoptosis in human MGC803 cells assessed as crescent nuclei at 2 to 8 uM after 24 hrs by Hoechst 33258 staining-based fluorescence microscopy; format: functional, cell-based
[21] = tested on: MGC-803; conditions: Homo sapiens, 1.25 to 5 uM
Description: Inhibition of epithelial-mesenchymal transition in human MGC803 cells assessed as down regulation of N-Cadherin at 1.25 to 5 uM after 48 hrs by Western blotting analysis

[22] = tested on: MGC-803; assay: Antimigratory activity against human MGC803 cells at >5 uM after 48 hrs by transwell assay; format: functional, cell-based
[23] = tested on: MGC-803; assay: Antiinvasive activity against human MGC803 cells at >5 uM after 48 hrs by matrigel-coated transwell assay; format: functional, cell-based
[24] = tested on: Mus musculus; assay: Downregulation of Bcl2 expression in nude BALB/C mouse xenografted with human MGC803 cells at 50 to 100 mg/kg, po administered for 21 days; format: functional, organism-based; conditions: MGC-803

## C#CCSc1nc(Nc2ccc(OC)cc2)c(C#N)c(-c2cc(OC)c(OC)c(OC)c2)n1
[1]
  IC50: > 125 µM

## C#CCSc1nc(Nc2ccc(F)cc2)c(C#N)c(-c2ccccc2)n1
[1]
  IC50: > 125 µM

## C#CCSc1nc(Nc2ccccc2Cl)c(C#N)c(-c2ccccc2)n1
[1]
  IC50: > 125 µM

## C#CCSc1nc(Cl)c(C#N)c(-c2cccc(Cl)c2)n1
[1]
  IC50: > 125 µM

## C#CCSc1nc(Nc2ccc(OC)cc2)c(C#N)c(-c2ccc(Cl)cc2)n1
[1]
  IC50: > 125 µM

## COc1cc(-c2nc(SCc3ccc(F)cc3)nc(NNC(N)=S)c2C#N)cc(OC)c1OC
[1]
  IC50: > 125 µM

## C#CCSc1nc(Cl)c(C#N)c(-c2ccc([N+](=O)[O-])cc2)n1
[1]
  IC50: > 125 µM

## C#CCSc1nc(NNC(=N)N)c(C#N)c(-c2ccc([N+](=O)[O-])cc2)n1
[1]
  IC50: > 125 µM

## C#CCSc1nc(Nc2ccc([N+](=O)[O-])cc2)c(C#N)c(-c2ccccc2)n1
[1]
  IC50: > 125 µM

## C#CCSc1nc(Nc2cccc(C(F)(F)F)c2)c(C#N)c(-c2cc(OC)c(OC)c(OC)c2)n1
[1]
  IC50: > 125 µM

## C#CCSc1nc(Nc2ccc(OC)cc2)c(C#N)c(-c2ccccc2)n1
[1]
  IC50: > 125 µM

## C#CCSc1nc(NNC(N)=S)c(C#N)c(-c2cc(OC)c(OC)c(OC)c2)n1
[2]
  Activity: Dose-dependent effect
[3]
  IC50: 67.5 µM
[4]
  inhibition in vivo at 50 mg/kg: 55.1%
[5]
  Activity: Non-toxic
[6]
  Activity: Dose-dependent effect
[7]
  IC50: 4.01 µM
[8]
  IC50: > 1250 µM
[9]
  Activity: Active
[10]
  Activity: 8.4
[11]
  Activity: 12.1
[12]
  Activity: Active
[13]
  IC50: 8.92 µM
[14]
  inhibition in vivo at 100 mg/kg: 72.1%
[15]
  Activity: Active
[16]
  Activity: Dose-dependent effect
[17]
  IC50: 58.9 µM
[18]
  IC50: > 1250 µM
[19]
  Activity: Active
[20]
  Activity: Active
[21]
  inhibition: Active
[22]
  Activity: Active
[23]
  Activity: Active
[24]
  Activity: Active

## C#CCSc1nc(Nc2cccc(C(F)(F)F)c2)c(C#N)c(-c2ccc(Cl)cc2)n1
[1]
  IC50: > 125 µM

## C#CCSc1nc(Nc2cccc(C(F)(F)F)c2)c(C#N)c(-c2ccccc2)n1
[1]
  IC50: > 125 µM

## C#CCSc1nc(Nc2cccc(Cl)c2)c(C#N)c(-c2ccccc2)n1
[1]
  IC50: > 125 µM

## N#Cc1c(Cl)nc(SCc2cn(Cc3ccccc3Cl)nn2)nc1-c1ccc(Cl)cc1
[1]
  IC50: > 125 µM

## C#CCSc1nc(Nc2ccc(Cl)cc2)c(C#N)c(-c2ccc(Br)cc2)n1
[1]
  IC50: > 125 µM

## C#CCSc1nc(Nc2ccc(C)cc2)c(C#N)c(-c2ccccc2)n1
[1]
  IC50: > 125 µM

## C#CCSc1nc(Nc2ccc(Cl)cc2)c(C#N)c(-c2ccccc2)n1
[1]
  IC50: > 125 µM
